# Laboratory results: patent US9718782B2, “TrkA kinase inhibitors, compositions and methods thereof” (MERCK SHARP & DOHME CORP, priority 2013, dated 2017)
# pIC50: −log10 of the molar value.
# Molecular target: T1, TrkA receptor (Homo sapiens, UniProt P04629)
# T1 construct: host or cells: U2OS (PathHunter, 'TrkA p75' cells)
# Experiment: DiscoverX PathHunter TrkA functional assay (NGF-stimulated U2OS cells)
# Format: cell-based
# Conditions: U2OS cells expressing TrkA-Prolink fusion and Shc1-EA; compound 1 hour, then EC80 NGF 3 hours; luminescence
# Description: TrkA functional activity was measured using a DiscoverX PathHunter assay. In this assay, U2OS cells are express TrkA receptor as a fusion with the weakly complementing fragment of B-galactosidase, which DiscoverX calls “Prolink (PK)”; additionally, Shcl is fused with a larger fragment, which is called “Enzyme Acceptor (EA)”. Activation of the TrkA receptor, upon NGF addition, results in the kinase domain being phosphorylated, resulting in subsequent recruitment of Shcl-EA protein. That recruitment results in an active B-galactosidase enzyme that is detected by addition of a chemiluminescent substrate.
# All reagents were purchased from DiscoverX, except for the receptor agonists (NGF, BDNF, NT3) which were purchased from Peprotech. Cells were expanded and frozen into cryovials (TrkA p75 @passage 13, 1.5×10^7 cells/vial; TrkC p75 @passage 11, 1.5×10^7 cells/vial in InVitrogen Recovery Cell Freezing media), and stored in the vapor phase of liquid nitrogen, and thawed immediately before use. Thawed cells were added to a 384-well plate (BD Falcon 384-well white/clear, TC surface 120 uL assay plates (353963), 20 uL of 0.375e6 cells/mL=>7500 cells/well), and allowed to incubate overnight. Compound (10 mM starting dose: 202.5 nL compound yielding 0.81% DMSO final in total assay volume and starting doses 81 uM) was added the following morning and allowed to incubate on cells for 1 hour. Then, 5 uL EC80 of agonist (NGF for TrkA; BDNF for TrkB; NT3 for TrkC) was added and allowed to incubate for 3 hours at room temperature. DiscoverX PathHunter detection reagent is added (12 uL to plate and components diluted in parts as per kit instructions) and the plate is further incubated for 1 hour in the dark. The plate is read via luminescence on the Perkin Elmer Envision.
# T1 sequence (P04629 33-796): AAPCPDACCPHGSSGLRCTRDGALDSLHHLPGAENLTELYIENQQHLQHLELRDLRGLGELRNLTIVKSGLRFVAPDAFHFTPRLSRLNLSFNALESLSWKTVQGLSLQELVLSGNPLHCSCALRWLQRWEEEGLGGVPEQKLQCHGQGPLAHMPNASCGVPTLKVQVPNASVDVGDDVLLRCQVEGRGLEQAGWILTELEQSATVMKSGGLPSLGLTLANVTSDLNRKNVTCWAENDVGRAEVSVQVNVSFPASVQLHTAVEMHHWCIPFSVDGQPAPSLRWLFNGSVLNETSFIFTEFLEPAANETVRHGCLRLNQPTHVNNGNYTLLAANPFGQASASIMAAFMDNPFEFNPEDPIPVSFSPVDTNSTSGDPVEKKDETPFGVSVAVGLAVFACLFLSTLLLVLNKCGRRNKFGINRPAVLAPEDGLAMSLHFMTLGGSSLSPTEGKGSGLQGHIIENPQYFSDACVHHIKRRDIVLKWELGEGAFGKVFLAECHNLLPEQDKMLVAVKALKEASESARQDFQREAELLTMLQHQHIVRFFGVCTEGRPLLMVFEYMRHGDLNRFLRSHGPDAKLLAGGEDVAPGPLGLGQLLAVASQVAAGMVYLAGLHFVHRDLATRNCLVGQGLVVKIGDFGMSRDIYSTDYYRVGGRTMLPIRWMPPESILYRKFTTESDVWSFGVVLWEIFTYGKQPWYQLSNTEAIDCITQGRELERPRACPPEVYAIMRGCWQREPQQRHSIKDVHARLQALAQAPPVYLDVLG
row,pIC50,SMILES
1,7.16,"Cc1ccc(NC(=O)NC2c3ccccc3-c3ccccc32)c(-c2ccccc2)n1 [Compound 1, 1-(9H-fluoren-9-yl)-3-(6-methyl-2-phenylpyridin-3-yl)urea]"
2,6.85,"Cc1nc(-c2ccccc2)c(NC(=O)NC2c3ccccc3-c3ccccc32)s1 [Compound 2, 1-(9H-fluoren-9-yl)-3-(2-methyl-4-phenyl-1,3-thiazol-5-yl)urea]"
3,7.21,"Cc1ncc(NC(=O)NC2c3ccccc3Oc3ccccc32)c(-c2ccccc2)n1 [Compound 3, 1-(2-methyl-4-phenylpyrimidin-5-yl)-3-(9H-xanthen-9-yl)urea]"
4,7.09,"Cc1ncc(NC(=O)NC2c3ccccc3-c3ccccc32)c(-c2ccccc2)n1 [Compound 4, 1-(9H-fluoren-9-yl)-3-(2-methyl-4-phenylpyrimidin-5-yl)urea]"
5,6.64,"Cc1ccc(NC(=O)NC2c3ccccc3-c3ccccc32)c(-c2ccc(F)cc2)n1 [Compound 5, 1-(9H-fluoren-9-yl)-3-[2-(4-fluorophenyl)-6-methylpyridin-3-yl]urea]"
6,7.46,"O=C(Nc1c(-c2ccccc2)nc2sccn12)NC1c2ccccc2-c2ccccc21 [Compound 6, 1-(9H-fluoren-9-yl)-3-(6-phenylimidazo [2,1-b][1,3]thiazol-5-yl)urea]"
7,7.36,"Cc1cc(NC(=O)NC2c3ccccc3-c3ccccc32)n(-c2ccccc2)n1 [Compound 7, 1-(9H-fluoren-9-yl)-3-(3-methyl-1-phenyl-1H-pyrazol-5-yl)urea]"
8,6.72,"Cc1onc(-c2ccccc2)c1NC(=O)NC1c2ccccc2-c2ccccc21 [Compound 8, 1-(9H-fluoren-9-yl)-3-(5-methyl-3-phenylisoxazol-4-yl)urea]"
9,6.28,"Cn1ncc(-c2ccccc2)c1NC(=O)NC1c2ccccc2-c2ccccc21 [Compound 9, 1-(9H-fluoren-9-yl)-3-(1-methyl-4-phenyl-1H-pyrazol-5-yl)urea]"
10,6.68,"Cc1nn(C)c(NC(=O)NC2c3ccccc3-c3ccccc32)c1-c1ccccc1 [Compound 10, 1-(1,3-dimethyl-4-phenyl-1H-pyrazol-5-yl)-3-(9H-fluoren-9-yl)urea]"
11,7.57,"O=C(Nc1cccnc1-c1ccccc1)NC1c2ccccc2-c2ccccc21 [Compound 11, 1-(9H-fluoren-9-yl)-3-(2-phenylpyridin-3-yl)urea]"
12,6.55,"O=C(Nc1cnccc1-c1ccccc1)NC1c2ccccc2-c2ccccc21 [Compound 12, 1-(9H-fluoren-9-yl)-3-(4-phenylpyridin-3-yl)urea]"
13,5.60,"Cc1ccc(NC(=O)NC2c3ccccc3-c3ccccc32)cn1 [Compound 13, 1-(9H-fluoren-9-yl)-3-(6-methylpyridin-3-yl)urea]"
14,6.92,"O=C(Nc1ccnn1-c1ccccc1)NC1c2ccccc2-c2ccccc21 [Compound 14, 1-(9H-fluoren-9-yl)-3-(1-phenyl-1H-pyrazol-5-yl)urea]"
15,5.52,"O=C(Nc1cc(-c2ccccc2)nn1-c1ccccc1)NC1c2ccccc2-c2ccccc21 [Compound 15, 1-(1,3-diphenyl-1H-pyrazol-5-yl)-3-(9H-fluoren-9-yl)urea]"
16,7.16,"CC(C)(C)c1cc(NC(=O)NC2c3ccccc3-c3ccccc32)n(-c2ccccc2)n1 [Compound 16, 1-(3-tert-butyl-1-phenyl-1H-pyrazol-5-yl)-3-(9H-fluoren-9-yl)urea]"
17,6.70,"CC(C)Cc1cc(NC(=O)NC2c3ccccc3-c3ccccc32)n(-c2ccccc2)n1 [Compound 17, 1-(9H-fluoren-9-yl)-3-[3-(2-methylpropyl)-1-phenyl-1H-pyrazol-5-yl]urea]"
18,6.07,"Cc1ccccc1-n1nc(C(C)(C)C)cc1NC(=O)NC1c2ccccc2-c2ccccc21 [Compound 18, 1-[3-tert-butyl-1-(2-methylphenyl)-1H-pyrazol-5-yl]-3-(9H-fluoren-9-yl)urea]"
19,7.16,"O=C(Nc1cc(C2CC2)nn1-c1ccccc1)NC1c2ccccc2-c2ccccc21 [Compound 19, 1-(3-cyclopropyl-1-phenyl-1H-pyrazol-5-yl)-3-(9H-fluoren-9-yl)urea]"
20,6.72,"CC(C)(C)c1cc(NC(=O)NC2c3ccccc3-c3ccccc32)n(-c2ccc(F)cc2)n1 [Compound 20, 1-[3-tert-butyl-1-(4-fluorophenyl)-1H-pyrazol-5-yl]-3-(9H-fluoren-9-yl)urea]"
21,7.55,"O=C(Nc1c(-c2ccccc2)nc2ccccn12)NC1c2ccccc2-c2ccccc21 [Compound 21, 1-(9H-fluoren-9-yl)-3-(2-phenylimidazo [1,2-a]pyridin-3-yl)urea]"

row,pIC50,SMILES
1,6.51,"Cn1cnc(-c2ccccc2)c1NC(=O)NC1c2ccccc2-c2ccccc21 [Compound 22, 1-(9H-fluoren-9-yl)-3-(1-methyl-4-phenyl-1H-imidazol-5-yl)urea]"
2,6.48,"Cc1nn(-c2ccc(F)cc2)c(NC(=O)NC2c3ccccc3-c3ccccc32)c1C#N [Compound 23, 1-[4-cyano-1-(4-fluorophenyl)-3-methyl-1H-pyrazol-5-yl]-3-(9H-fluoren-9-yl)urea]"
3,6.26,"COc1ccc(-c2cc(NC(=O)NC3c4ccccc4-c4ccccc43)n(-c3ccccc3)n2)cc1 [Compound 24, 1-(9H-fluoren-9-yl)-3-[3-(4-methoxyphenyl)-1-phenyl-1H-pyrazol-5-yl]urea]"
4,5.85,"O=C(Nc1c2cnc3ccccc3c2nn1-c1ccccc1)NC1c2ccccc2-c2ccccc21 [Compound 25, 1-(9H-fluoren-9-yl)-3-(2-phenyl-2H-pyrazolo[4,3-c]quinolin-3-yl)urea]"
5,6.28,"CNc1ncccc1NC(=O)NC1c2ccccc2-c2ccccc21 [Compound 26, 1-(9H-fluoren-9-yl)-3-[2-(methylamino)pyridin-3-yl]urea]"
6,5.49,"Cc1ccc(NC(=O)NC2c3ccccc3-c3ccccc32)c(F)n1 [Compound 27, 1-(9H-fluoren-9-yl)-3-(2-fluoro-6-methylpyridin-3-yl)urea]"
7,6.82,"Cc1ncc(NC(=O)NC2c3ccccc3-c3ccccc32)c(-c2ccc(F)cc2)n1 [Compound 28, 1-(9H-fluoren-9-yl)-3-[4-(4-fluorophenyl)-2-methylpyrimidin-5-yl]urea]"
8,6.32,"Cc1cc(-c2ccc(F)cc2)c(NC(=O)NC2c3ccccc3-c3ccccc32)cn1 [Compound 29, 1-(9H-fluoren-9-yl)-3-[4-(4-fluorophenyl)-6-methylpyridin-3-yl]urea]"
9,6.77,"O=C(Nc1cncnc1-c1ccccc1)NC1c2ccccc2-c2ccccc21 [Compound 30, 1-(9H-fluoren-9-yl)-3-(4-phenylpyrimidin-5-yl)urea]"
10,6.02,"O=C(Nc1ccccc1-c1ccccc1)NC1c2ccccc2-c2ccccc21 [Compound 31, 1-biphenyl-2-yl-3-(9H-fluoren-9-yl)urea]"
11,5.92,"Cn1nnc(-c2cccc(NC(=O)NC3c4ccccc4-c4ccccc43)c2)n1 [Compound 32, 1-(9H-fluoren-9-yl)-3-[3-(2-methyl-2H-tetrazol-5-yl)phenyl]urea]"
12,5.77,"Cc1nnnn1-c1cccc(NC(=O)NC2c3ccccc3-c3ccccc32)c1 [Compound 33, 1-(9H-fluoren-9-yl)-3-[3-(5-methyl-1H-tetrazol-1-yl)phenyl]urea]"
13,5.96,"O=C(Nc1cccc(-n2cnnc2)c1)NC1c2ccccc2-c2ccccc21 [Compound 34, 1-(9H-fluoren-9-yl)-3-[3-(4H-1,2,4-triazol-4-yl)phenyl]urea]"
14,5.40,"O=C(Nc1ccccc1N1CCOCC1)NC1c2ccccc2-c2ccccc21 [Compound 35, 1-(9H-fluoren-9-yl)-3-(2-morpholin-4-ylphenyl)urea]"
15,5.52,"CN1CCN(Cc2ccccc2NC(=O)NC2c3ccccc3-c3ccccc32)CC1 [Compound 36, 1-(9H-fluoren-9-yl)-3-{2-[(4-methylpiperazin-1-yl)methyl]phenyl}urea]"
16,5.64,"Cc1nnc(-c2cccc(NC(=O)NC3c4ccccc4-c4ccccc43)c2)[nH]1 [Compound 37, 1-(9H-fluoren-9-yl)-3-[3-(5-methyl-4H-1,2,4-triazol-3-yl)phenyl]urea]"
17,5.52,"Cc1nccn1-c1cccc(NC(=O)NC2c3ccccc3-c3ccccc32)c1 [Compound 38, 1-(9H-fluoren-9-yl)-3-[3-(2-methyl-1H-imidazol-1-yl)phenyl]urea]"
18,5.52,"Cc1cc(NC(=O)NC2c3ccccc3-c3ccccc32)n(-c2ccccn2)n1 [Compound 39, 1-(9H-fluoren-9-yl)-3-(3-methyl-1-pyridin-2-yl-1H-pyrazol-5-yl)urea]"
19,6.70,"O=C(Nc1cccnc1C1CCCCC1)NC1c2ccccc2-c2ccccc21 [Compound 40, 1-(2-cyclohexylpyridin-3-yl)-3-(9H-fluoren-9-yl)urea]"
20,7.08,"Cc1cc(NC(=O)NC2c3ccccc3-c3ccccc32)n(-c2ccc(F)cc2)n1 [Compound 41, 1-(9H-fluoren-9-yl)-3-[1-(4-fluorophenyl)-3-methyl-1H-pyrazol-5-yl]urea]"
21,6.96,"Cn1cnnc1-c1cccc(NC(=O)NC2c3ccccc3-c3ccccc32)c1 [Compound 42, 1-(9H-fluoren-9-yl)-3-[3-(4-methyl-4H-1,2,4-triazol-3-yl)phenyl]urea]"
